Molecules are shown by their SMILES. Structures can show the parent of a compound that is named as a salt.

Here are results for 14 compounds from patent US10323020B2, “Substituted piperidinyl tetrahydroquinolines” (Bayer Pharma Aktiengesellschaft, priority 2013, dated 2019).

The target of series [1] is recombinant human α2C receptor (Homo sapiens (Human), UniProt P18825). The series can be described thus: Antagonism against the adrenoreceptor α2C (luminescence, noradrenaline-stimulated CHO cells). The conditions noted are these: noradrenaline 20 nM; CHO cell line with Gαqi3 and mtOb. The format is cell-based. The method, then:
Antagonism against the adrenoreceptor α1A was tested using a recombinant human α1A receptor CHO cell line which additionally also recombinantly expresses mtAeq (mitochondrial aequorin). Antagonism against the adrenoreceptor α2A was tested using a recombinant human α2A-Gα16 receptor fusion protein CHO cell line (PerkinElmer Life Sciences) which additionally also recombinantly expresses mtAeq. Antagonism against the adrenoreceptor α2B was tested using a recombinant human α2B receptor CHO cell line (PerkinElmer Life Sciences) which additionally also recombinantly expresses mtAeq. Antagonism against the adrenoreceptor α2C was tested using a recombinant human α2C receptor CHO cell line which additionally also recombinantly expresses a chimaric G protein (Gαqi3) and mtOb (mitochondrial obelin).
The cells were cultivated at 37° C. and 5% CO2 in Dulbecco's modified Eagle's Medium/NUT mix F12 with L-glutamine which additionally contains 10% (v/v) inactivated foetal calf serum, 1 mM sodium pyruvate, 0.9 mM sodium bicarbonate, 50 U/ml penicillin, 50 μg/ml streptomycin, 2.5 μg/ml amphotericin B and 1 mg/ml Geneticin. The cells were passaged with enzyme-free Hank's-based cell dissociation buffer. All cell culture reagents used were from Invitrogen (Carlsbad, USA).
Luminescence measurements were carried out on white 384-well microtitre plates. 2000 cells/well were plated in a volume of 25 μl and cultivated for one day at 30° C. and 5% CO2 in cell culture medium with coelenterazine (α2A and α2B: 5 μg/ml; α1a/c and α2C: 2.5 μg/ml). Serial dilutions of the test substances (10 μl) were added to the cells. After 5 minutes, noradrenaline was added to the cells (35 μl; final concentrations: 20 nM (α1a/c and α2C) or 200 nM (α2A and α2B)), and the emitted light was measured for 50 seconds using a CCD (charge-coupled device) camera (Hamamatsu Corporation, Shizuoka, Japan) in a light-tight box. The test substances were tested up to a maximum concentration of 10 μM. The IC50 values were calculated from the appropriate dose-response curves.

The test system of series [2] is diabetic (ZDFfa/fa) and healthy rats (Wistar). The experiment in a line: Assay of perfusion-enhancing substances (microcirculation), laser doppler at the paw. The class given is in vivo, rat. An excerpt:
In diabetic (ZDFfa/fa) and healthy rats (Wistar), a laser doppler probe was fastened under anaesthesia conditions (isoflurane anaesthesia) at the sole of the paw for measuring cutaneous microcirculation. The test animals were once treated orally with the test substances. During the experiment, microperfusion and temperature of the lower extremities were documented continuously. Here, a temperature-sensitive laser doppler probe (Periflux, O2C) was fastened with adhesive to the paws of the animals, allowing the measurement of microperfusion and skin temperature. The microcirculation measurement values were measured on both paws 30 min after oral administration of the test substance. […] Also stated is the MED for the significant increase of skin temperature (ttest).
Microcirculation data for adrenoreceptor α2C receptor antagonist of the compound of Example 8 and for the comparative substance ORM12741, an AR α2c receptor antagonist from Orion, are shown in Table 3: […]

The subject of series [3] is conscious female Wistar rats. The series can be described thus: Radiotelemetric measurement of blood pressure and heart rate of conscious rats. The format is in vivo, rat. To be noted: oral 10 mg/kg. An excerpt:
A commercially available telemetry system from Data Sciences International DSI, USA, was employed for the measurements on conscious rats described below. The system consists of 3 main components: (1) implantable transmitters (Physiotel® telemetry transmitter), (2) receivers (Physiotel® receiver), which are linked via a multiplexer (DSI Data Exchange Matrix) to a (3) data acquisition computer. The telemetry system makes it possible to continuously record blood pressure, heart rate and body motion of conscious animals in their usual habitat.
The studies were conducted on adult female Wistar rats with a body weight of >200 g. After transmitter implantation, the experimental animals were housed singly in type III Makrolon® cages. They had free access to standard feed and water. The day/night rhythm in the test laboratory was set by changing the illumination of the room.
The telemetry transmitters used (PA-C40, DSI) were surgically implanted under aseptic conditions in the experimental animals at least 14 days before the first experimental use.
For the implantation, the fasted animals were anaesthetized with isoflurane (IsoFlo®, Abbott, initiation 5%, maintenance 2%) and shaved and disinfected over a large area of their abdomens. […]
Each of the instrumented rats living in the system was assigned a separate receiving antenna (RPC-1 Receiver, DSI). […] The signals emitted were detected online by a data acquisition system (Dataquest™ A.R.T. for Windows, DSI) and processed accordingly.
In the standard procedure, the following were measured for 10-second periods in each case: (1) systolic blood pressure (SBP), (2) diastolic blood pressure (DBP), (3) mean arterial pressure (MAP) and (4) heart rate (HR) and (5) activity (ACT). These parameters were measured over 24 hours after administration.
The acquisition of measurements was repeated under computer control at 5-minute intervals. The source data obtained as absolute values were corrected in the diagram with the currently measured barometric pressure (Ambient Pressure Reference Monitor, APR-1, DSI). […]

Chain of recombinant human α2C receptor (P18825 whole entry, the tested form may be a part): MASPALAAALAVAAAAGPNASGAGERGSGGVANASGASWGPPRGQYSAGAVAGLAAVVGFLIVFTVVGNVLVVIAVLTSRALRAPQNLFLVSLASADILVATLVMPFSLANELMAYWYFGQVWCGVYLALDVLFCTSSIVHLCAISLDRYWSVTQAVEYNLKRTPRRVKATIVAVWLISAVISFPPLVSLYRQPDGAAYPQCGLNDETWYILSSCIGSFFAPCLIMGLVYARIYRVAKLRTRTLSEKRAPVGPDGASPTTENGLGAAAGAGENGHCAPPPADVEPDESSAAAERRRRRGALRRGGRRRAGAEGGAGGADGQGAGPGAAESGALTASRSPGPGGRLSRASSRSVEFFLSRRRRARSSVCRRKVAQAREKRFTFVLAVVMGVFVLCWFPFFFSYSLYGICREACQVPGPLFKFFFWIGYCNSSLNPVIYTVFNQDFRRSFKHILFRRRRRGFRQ

Consider `CCC(COC)Nc1ncc(C(=O)N2CCC(N3CCc4ccc(F)cc4C3)CC2)cn1` (racemic) [Example 2, (rac)-[4-(7-Fluoro-3,4-dihydroisoquinolin-2(1H)-yl)piperidin-1-yl]{2-[(1-methoxybutan-2-yl)amino]pyrimidin-5-yl}methanone], for which the IC50 in series [1] is 26 nM.
For the compound `CCC(COC)Nc1ncc(C(=O)N2CCC(N3CCc4ccc(OC)cc4C3)CC2)cn1` (racemic) [Example 4, (rac)-{2-[(1-Methoxybutan-2-yl)amino]pyrimidin-5-yl}[4-(7-methoxy-3,4-dihydroisoquinolin-2(1H)-yl)piperidin-1-yl]methanone], the IC50 in series [1] was 5 nM.
As for `CCC(COC)Nc1ncc(C(=O)N2CCC(N3CCc4cc(OC)ccc4C3)CC2)cn1` (racemic) [Example 5, (rac)-{2-[(1-Methoxybutan-2-yl)amino]pyrimidin-5-yl}[4-(6-methoxy-3,4-dihydroisoquinolin-2(1H)-yl)piperidin-1-yl]methanone], in series [1], the IC50 turned out to be 20 nM.
In the case of `CCC(COC)Nc1ncc(C(=O)N2CCC(N3CCc4ccccc4C3)CC2)cn1` (racemic) [Example 6, (rac)-[4-(3,4-Dihydroisoquinolin-2(1H)-yl)piperidin-1-yl]{2-[(1-methoxybutan-2-yl)amino]pyrimidin-5-yl}methanone], the IC50 in series [1] came to 31 nM.
For `CCC(CO)Nc1ncc(C(=O)N2CCC(N3CCc4ccccc4C3)CC2)cn1` (racemic) [Example 7, (rac)-[4-(3,4-Dihydroisoquinolin-2(1H)-yl)piperidin-1-yl]{2-[(1-hydroxybutan-2-yl)amino]pyrimidin-5-yl}methanone], the IC50 in series [1] amounted to 68 nM.
Take `COCCNc1ncc(C(=O)N2CCC(N3CCc4ccccc4C3)CC2)cn1` [Example 1, [4-(3,4-Dihydroisoquinolin-2(1H)-yl)piperidin-1-yl]{2-[(2-methoxyethyl)amino]pyrimidin-5-yl}methanone]: the IC50 in series [1] worked out at 82 nM.
On the same count and under the same terms, then `O=C(c1cnc(N2CC3(COC3)C2)nc1)N1CCC(N2CCc3ccc(F)cc3C2)CC1` [Example 9, [4-(7-Fluoro-3,4-dihydroisoquinolin-2(1H)-yl)piperidin-1-yl][2-(2-oxa-6-azaspiro[3.3]hept-6-yl)pyrimidin-5-yl]methanone], with 16 nM.
The same measure, in the same setting: for `COc1ccc2c(c1)CCN(C1CCN(C(=O)c3cnc(N4CC5(COC5)C4)nc3)CC1)C2` [Example 10, [4-(6-Methoxy-3,4-dihydroisoquinolin-2(1H)-yl)piperidin-1-yl][2-(2-oxa-6-azaspiro[3.3]hept-6-yl)pyrimidin-5-yl]methanone] the value was 30 nM; for `O=C(O)[C@H]1CCCN1c1ncc(C(=O)N2CCC(N3CCc4ccccc4C3)CC2)cn1` [Example 11, 1-(5-{[4-(3,4-Dihydroisoquinolin-2(1H)-yl)piperidin-1-yl]carbonyl}pyrimidin-2-yl)-D-proline Hydrochloride], 96 nM.
Same read-out and setting: for `O=C(c1cnc(N2CCS(=O)(=O)CC2)nc1)N1CCC(N2CCc3ccccc3C2)CC1` [Example 12, [4-(3,4-Dihydroisoquinolin-2(1H)-yl)piperidin-1-yl][2-(1,1-dioxidothiomorpholin-4-yl)pyrimidin-5-yl]methanone] the value was 26 nM; for `CC1CN(c2ncc(C(=O)N3CCC(N4CCc5ccccc5C4)CC3)cn2)CC(C)O1` (stereo not drawn) [Example 13, [4-(3,4-Dihydroisoquinolin-2(1H)-yl)piperidin-1-yl][2-(2,6-dimethylmorpholin-4-yl)pyrimidin-5-yl]methanone (Cis Isomer)], 47 nM; for `CC1CN(c2ncc(C(=O)N3CCC(N4CCc5ccccc5C4)CC3)cn2)CC(C)O1` (stereo not drawn) [Example 14, [4-(3,4-Dihydroisoquinolin-2(1H)-yl)piperidin-1-yl][2-(2,6-dimethylmorpholin-4-yl)pyrimidin-5-yl]methanone (Trans Isomer)], 24 nM.
Take `CC1(C)CN(c2ncc(C(=O)N3CCC(N4CCc5ccccc5C4)CC3)cn2)CCO1` [Example 15, [4-(3,4-Dihydroisoquinolin-2(1H)-yl)piperidin-1-yl][2-(2,2-dimethylmorpholin-4-yl)pyrimidin-5-yl]methanone]: the IC50 in series [1] was determined as 68 nM.
Regarding `COC[C@@]1(C)CCCN2CCc3c(oc4ccccc34)[C@@H]21` [ORM-12741, reference compound], the “factor by which microcirculation is improved at the MED compared to placebo” value in series [2] (single oral dose at MED, 30 min after administration) came out at 1.9 x. The MED microcirculation in series [2] (single oral dose, measured 30 min after administration, significant vs placebo) worked out at 0.1 mg/kg. The MED skin temperature in series [2] (single oral dose, significant increase of skin temperature (ttest)) stood at 0.01 mg/kg. In addition, the blood pressure result in series [3] is given as “additional reduction in blood pressure”.

As a reminder, the IC50 is the concentration at which inhibition is half-maximal.
